Assay: xn = mol fraction of the nth substance listed

CCOc1ccccc1 + CCNc1ccccc1
viscosity [mPa·s], 101 kPa
Details	293.15 K	298.15 K	303.15 K	308.15 K	313.15 K	318.15 K	323.15 K
x2 = 0.0508	1.253	1.161	1.063	0.999	0.933	0.868	0.808
x2 = 0.1098	1.291	1.19	1.088	1.021	0.953	0.884	0.823
x2 = 0.1509	1.317	1.211	1.105	1.036	0.965	0.896	0.832
x2 = 0.2097	1.355	1.241	1.131	1.057	0.983	0.91	0.845
x2 = 0.2533	1.386	1.265	1.151	1.072	0.996	0.921	0.855
x2 = 0.3046	1.423	1.295	1.176	1.093	1.012	0.935	0.866
x2 = 0.3501	1.459	1.323	1.2	1.112	1.028	0.948	0.878
x2 = 0.4081	1.51	1.364	1.234	1.141	1.052	0.967	0.894
x2 = 0.4533	1.552	1.397	1.262	1.164	1.071	0.984	0.908
x2 = 0.5003	1.599	1.435	1.295	1.191	1.094	1.003	0.924
x2 = 0.5519	1.655	1.479	1.333	1.223	1.122	1.027	0.944
x2 = 0.6068	1.719	1.531	1.377	1.26	1.153	1.054	0.967
x2 = 0.6496	1.772	1.574	1.414	1.291	1.18	1.077	0.986
x2 = 0.7065	1.846	1.633	1.464	1.333	1.215	1.107	1.012
x2 = 0.7497	1.906	1.682	1.506	1.367	1.244	1.131	1.033
x2 = 0.7998	1.978	1.739	1.554	1.407	1.278	1.16	1.058
x2 = 0.8505	2.055	1.798	1.604	1.447	1.311	1.188	1.082
x2 = 0.9019	2.133	1.859	1.653	1.487	1.344	1.214	1.105
x2 = 0.9502	2.205	1.914	1.699	1.525	1.374	1.239	1.125

CC(=O)[C@@]12O[C@@H]1C[C@H]1[C@@H]3CCC4=CC(=O)CC[C@]4(C)[C@H]3[C@H](O)C[C@@]12C + ClC(Cl)Cl
viscosity [mPa·s]
Details	295.7 K	299.65 K	303.75 K	307.65 K	312.15 K	317.15 K	321.15 K
100 kPa, x1 = 0.00321	0.57	0.536	0.52	0.498	0.491	0.48	0.454
100 kPa, x1 = 0.004735	0.582	0.553	0.53	0.506	0.5	0.485	0.463
100 kPa, x1 = 0.006205	0.596	0.564	0.544	0.515	0.505	0.492	0.474
100 kPa, x1 = 0.007786	0.612	0.577	0.552	0.524	0.515	0.499	0.48
100 kPa, x1 = 0.009221	0.629	0.593	0.566	0.532	0.522	0.506	0.489
100 kPa, x1 = 0.01088	0.646	0.609	0.578	0.544	0.529	0.516	0.501
100 kPa, x1 = 0.01243	0.662	0.617	0.585	0.554	0.54	0.523	0.513
101 kPa, x1 = 0.003181	0.57	0.536	0.52	0.498	0.491	0.48	0.454
101 kPa, x1 = 0.00467	0.582	0.553	0.53	0.506	0.5	0.485	0.463
101 kPa, x1 = 0.006096	0.596	0.564	0.544	0.515	0.505	0.492	0.474
101 kPa, x1 = 0.007615	0.612	0.577	0.552	0.524	0.515	0.499	0.48
101 kPa, x1 = 0.008981	0.629	0.593	0.566	0.532	0.522	0.506	0.489
101 kPa, x1 = 0.01055	0.646	0.609	0.578	0.544	0.529	0.516	0.501
101 kPa, x1 = 0.01199	0.662	0.617	0.585	0.554	0.54	0.523	0.513

OCC(O)CO + O
Details	viscosity [mPa·s]
293.15 K, 101.33 kPa, x1 = 0.021	1.307
293.15 K, 101.33 kPa, x1 = 0.047	1.952
293.15 K, 101.33 kPa, x1 = 0.077	2.817
293.15 K, 101.33 kPa, x1 = 0.12	4.618
293.15 K, 101.33 kPa, x1 = 0.16	7.693
298.15 K, 101 kPa, x1 = 0.0866	2.708
298.15 K, 101 kPa, x1 = 0.1636	7.353
298.15 K, 101 kPa, x1 = 0.2269	13.77
298.15 K, 101 kPa, x1 = 0.3134	27.75
298.15 K, 101 kPa, x1 = 0.439	59.74
298.15 K, 101 kPa, x1 = 0.5124	88.48
298.15 K, 101 kPa, x1 = 0.6378	163.1
298.15 K, 101 kPa, x1 = 0.7036	220.8
298.15 K, 101 kPa, x1 = 0.7684	297.3
298.15 K, 101 kPa, x1 = 0.8478	429.9
298.15 K, 101 kPa, x1 = 0.9176	604.8
298.15 K, 101 kPa, x1 = 0.9561	734.9
300.65 K, 101 kPa, x1 = 0.2636	10.84
300.65 K, 101 kPa, x1 = 0.2837	12.68
300.65 K, 101 kPa, x1 = 0.3153	16.23
300.65 K, 101 kPa, x1 = 0.3391	19.56
300.65 K, 101 kPa, x1 = 0.365	23.64
300.65 K, 101 kPa, x1 = 0.3785	26.06
300.65 K, 101 kPa, x1 = 0.4055	31.58
300.65 K, 101 kPa, x1 = 0.4294	37.49
300.65 K, 101 kPa, x1 = 0.485	54.01
300.65 K, 101 kPa, x1 = 0.5117	64.08
300.65 K, 101 kPa, x1 = 0.5472	79.81
300.65 K, 101 kPa, x1 = 0.5575	85.2
300.65 K, 101 kPa, x1 = 0.5867	102.7
300.65 K, 101 kPa, x1 = 0.6349	135.1
300.65 K, 101 kPa, x1 = 0.659	154.4
300.65 K, 101 kPa, x1 = 0.6978	191.6
300.65 K, 101 kPa, x1 = 0.7166	212.1
300.65 K, 101 kPa, x1 = 0.7442	245.6
300.65 K, 101 kPa, x1 = 0.7646	266.3
300.65 K, 101 kPa, x1 = 0.7947	309.7
300.65 K, 101 kPa, x1 = 0.8114	336.6
300.65 K, 101 kPa, x1 = 0.8274	363.6
300.65 K, 101 kPa, x1 = 0.8428	389.9
300.65 K, 101 kPa, x1 = 0.859	420.7
300.65 K, 101 kPa, x1 = 0.9082	519.8
300.65 K, 101 kPa, x1 = 0.9434	607.3
300.65 K, 101 kPa, x2 = 0.0171	715.5
303.15 K, 101 kPa, x1 = 0.00777	0.877
303.15 K, 101 kPa, x1 = 0.0152	0.956
303.15 K, 101 kPa, x1 = 0.02262	1.04
303.15 K, 101 kPa, x1 = 0.03118	1.147
303.15 K, 101 kPa, x1 = 0.03958	1.259
303.15 K, 101 kPa, x1 = 0.04604	1.351
303.15 K, 101 kPa, x1 = 0.05683	1.52
303.15 K, 101 kPa, x1 = 0.07063	1.751
303.15 K, 101 kPa, x1 = 0.07885	1.907
303.15 K, 101 kPa, x1 = 0.08828	2.098
303.15 K, 101 kPa, x1 = 0.1003	2.364
303.15 K, 101 kPa, x1 = 0.1112	2.625
303.15 K, 101 kPa, x1 = 0.1223	2.919
303.15 K, 101 kPa, x1 = 0.1369	3.347
303.15 K, 101 kPa, x1 = 0.154	3.909
303.15 K, 101 kPa, x1 = 0.171	4.552
303.15 K, 101 kPa, x1 = 0.1874	5.236
303.15 K, 101 kPa, x1 = 0.1967	5.679
303.15 K, 101 kPa, x1 = 0.2067	6.187
303.15 K, 101 kPa, x1 = 0.2178	6.77
303.15 K, 101 kPa, x1 = 0.225	7.222
303.15 K, 101 kPa, x1 = 0.2378	7.986
303.15 K, 101 kPa, x1 = 0.2459	8.548
303.15 K, 101 kPa, x1 = 0.2622	9.75
303.15 K, 101 kPa, x1 = 0.2636	9.8
303.15 K, 101 kPa, x1 = 0.2837	11.4
303.15 K, 101 kPa, x1 = 0.3153	14.53
303.15 K, 101 kPa, x1 = 0.3391	17.41
303.15 K, 101 kPa, x1 = 0.365	20.97
303.15 K, 101 kPa, x1 = 0.3785	23.02
303.15 K, 101 kPa, x1 = 0.4055	27.81
303.15 K, 101 kPa, x1 = 0.4294	32.86
303.15 K, 101 kPa, x1 = 0.485	46.9
303.15 K, 101 kPa, x1 = 0.5117	55.29
303.15 K, 101 kPa, x1 = 0.5472	68.64
303.15 K, 101 kPa, x1 = 0.5575	73.12
303.15 K, 101 kPa, x1 = 0.5867	87.65
303.15 K, 101 kPa, x1 = 0.6349	114.5
303.15 K, 101 kPa, x1 = 0.659	130.4
303.15 K, 101 kPa, x1 = 0.6978	161
303.15 K, 101 kPa, x1 = 0.7166	177.9
303.15 K, 101.33 kPa, x1 = 0.021	1.057
303.15 K, 101.33 kPa, x1 = 0.047	1.46
303.15 K, 101.33 kPa, x1 = 0.077	2.006
303.15 K, 101.33 kPa, x1 = 0.12	3.309
303.15 K, 101.33 kPa, x1 = 0.16	5.252
313.15 K, 101.33 kPa, x1 = 0.021	0.843
313.15 K, 101.33 kPa, x1 = 0.047	1.086
313.15 K, 101.33 kPa, x1 = 0.077	1.465
313.15 K, 101.33 kPa, x1 = 0.12	2.226
313.15 K, 101.33 kPa, x1 = 0.16	3.499
323.15 K, 101.33 kPa, x1 = 0.021	0.68
323.15 K, 101.33 kPa, x1 = 0.047	0.876
323.15 K, 101.33 kPa, x1 = 0.077	1.095
323.15 K, 101.33 kPa, x1 = 0.12	1.666
323.15 K, 101.33 kPa, x1 = 0.16	2.587

From the CheMixHub viscosity set
